Patent US20220306617A1, “SUBSTITUTED 1,3-PHENYL HETEROARYL DERIVATIVES AND THEIR USE IN THE TREATMENT OF DISEASE” (NOVARTIS AG, priority 2019, published 2022)

Target: T1, abc isoform of human TMEM16A channel expressed in CHO cells (Homo sapiens, UniProt Q5XXA6, DEL476-501)
T1 construct: expressed in transfected cells; host or cells: CHO cells, doxycycline-inducible expression under Blasticidin/Zeocin selection
T1 sequence (Q5XXA6 with tags, fused parts or gaps isoform Q5XXA6-5 DEL539-564): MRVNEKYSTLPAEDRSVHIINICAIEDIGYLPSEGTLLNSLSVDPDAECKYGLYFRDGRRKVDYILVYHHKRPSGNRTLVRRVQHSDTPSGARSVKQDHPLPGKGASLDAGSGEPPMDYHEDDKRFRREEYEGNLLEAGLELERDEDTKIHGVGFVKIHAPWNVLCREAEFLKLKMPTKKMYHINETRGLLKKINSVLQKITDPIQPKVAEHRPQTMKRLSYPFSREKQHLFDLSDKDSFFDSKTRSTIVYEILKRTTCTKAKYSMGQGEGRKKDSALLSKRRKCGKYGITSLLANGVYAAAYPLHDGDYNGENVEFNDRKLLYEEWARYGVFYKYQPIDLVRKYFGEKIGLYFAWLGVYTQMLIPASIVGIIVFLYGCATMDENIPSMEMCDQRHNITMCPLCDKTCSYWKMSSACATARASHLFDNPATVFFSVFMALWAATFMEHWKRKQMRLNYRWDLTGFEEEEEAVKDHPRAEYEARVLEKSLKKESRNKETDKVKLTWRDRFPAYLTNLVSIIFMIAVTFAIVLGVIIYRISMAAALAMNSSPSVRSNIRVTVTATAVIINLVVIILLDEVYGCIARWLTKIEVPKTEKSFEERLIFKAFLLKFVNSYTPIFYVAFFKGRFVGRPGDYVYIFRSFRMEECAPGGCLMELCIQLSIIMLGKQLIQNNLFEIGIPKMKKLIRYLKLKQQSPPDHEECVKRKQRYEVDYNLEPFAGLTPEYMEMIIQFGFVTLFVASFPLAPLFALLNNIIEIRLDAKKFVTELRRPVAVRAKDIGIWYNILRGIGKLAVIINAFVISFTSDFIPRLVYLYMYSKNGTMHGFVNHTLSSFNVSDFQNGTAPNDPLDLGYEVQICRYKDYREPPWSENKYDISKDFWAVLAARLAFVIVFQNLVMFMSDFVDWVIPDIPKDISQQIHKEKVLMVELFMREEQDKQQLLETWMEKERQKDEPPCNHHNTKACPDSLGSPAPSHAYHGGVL
Test: Automated patch clamping (QPatch) assay to measure TMEM16A activity in whole-cell
Format: cell-based
Conditions: for EC50: CHO cells expressing human TMEM16A (abc), whole-cell automated patch clamp, Hill fit, read-out: TMEM16A QPATCH assay EC50 V3 EC50; for Emax: CHO, read-out: TMEM16A QPATCH assay EC50 V3 Assay Window (% TMEM16A max activation)
Experimental: Automated Patch Clamping Assay to Measure TMEM16A Activity in Whole-Cell
Chinese hamster ovary cells (CHO) cells expressing abc isoform of human TMEM16A channel (Ref) were grown in vented cell-culture flasks (Corning) containing cell culture medium (1×F-12 Ham, 10% FBS, 1% Penicillin-streptomycin, 5 μg/mL Blasticidin S HCl, 400 μg/mL Zeocin), maintained at 37° C. in an incubator with 5% C02, 95% 02 and 100% humidity. The cells were passaged every 2-3 days at 80-90% confluence by aspirating the cell culture medium, washing twice with 10 mL D-PBS then incubating with 4 mL Trypsin-EDTA for no longer than 5 minutes. Trypsin was neutralized with the addition of 32 mL growth medium to the cell suspension, the cells were counted using a viable-cell counter (Vi-CELL; Beckmann-Coulter) and new flasks were seeded at a cell density of 0.01, 0.02, or 0.05×10^6 cells per cm2 for 3, 2, or 1 day(s) growth, respectively. Cell suspension was diluted in the new 175 cm2 flask with 50 mL of growth medium. Doxycycline was used to induce the expression of TMEM16A channel protein and was added directly to the culture flask 18-24 hours in advance of assay at a final concentration of 1 μg/mL. Induced cells were washed with D-PBS and detached from their culture flasks by adding 10 mL of Detachin and incubating for 10 minutes. Once detached, 5 mL of QPatch assay medium (1×CHO-S-SFM II (Sigma), 25 mM HEPES) was added and the resultant cell suspension counted using the Vi-CELL viable cell counter. The optimal cell density for this QPatch assay is 2-5×1 06 cells/mL; re-adjusted as necessary with QPatch assay medium.
The ion channel activity of TMEM16A (abc) expressed in CHO cells was assed using an automated patch clamp system (Qpatch, Sophion). These systems use planar patch-clamp technology to enable high-resistance, continuous whole-cell recordings from multiple cells in parallel, whilst maintaining each individual cell as an isolated experiment. First, each well was primed with intracellular and extracellular solutions described below. Cells were spun down, washed and then resuspended using extracellular solution. Intracellular solution: 130 mM N-methyl-D-glucamine, 10 mM EGTA, 20 mM CaCl2, 1 mM MgCl2, 10 mM HEPES 10, 10 mM BAPTA, 99 mM Sucrose, 2 mM Mg-ATP, pH 7.3, 320 mOsm Extracellular solution: 130 mM N-methyl-D-glucamine, 10 mM EGTA, 20 mM CaCl2, 1 mM MgCl2, 10 mM HEPES 10, 10 mM BAPTA, 99 mM Sucrose, 2 mM Mg-ATP, pH 7.3, 320 mOsm. Resuspended cells were then added to each well and suction was applied from the intracellular side in order to position a cell on the chip aperture, form a high resistance (GO) seal and achieve a whole-cell recording configuration. Following successful whole cell access, cell membranes were maintained at a voltage of −70 mV until the voltage protocol is applied. From this voltage, membranes were depolarized to +70 mV for 1500 ms, and then hyperpolarized to […] before being depolarized again from −90 to +70 mV in a continuous ramp waveform. At the end of the ramp, the membrane voltage is stepped back to −70 mV until the next waveform was applied. Compounds were dissolved at 10 mM in 100% DMSO and then diluted into extracellular solution (0.3% DMSO final) to the desired final concentration. The assay lower and upper limit were defined as follow, average amplitude (nA) of the last 3 sweeps in the vehicle addition of each cell was considered the basal current (lower limit); the average maximum current response in 3 cells for a reference potentiator at maximal concentration (upper limit). Current values for each compound concentration were then plotted against […]. EC50 curves are fitted to concentration-response data using curve-fitting functions (Hill fit) within the QPatch software. Curve fitting is constrained between the lowest concentration (vehicle-only addition) and the highest current value measured within the concentration range. […]

[1] = maximum current at highest dose relative to reference potentiator at maximal concentration (upper limit) and vehicle (lower limit)

SMILES | EC50 [µM] | Emax [1] [%] | TMEM16A QPATCH assay EC50 V3 Assay Window (% TMEM16A max activation) [1] [%]
C[C@H](NC(=O)c1cnc(-c2cccc(-c3nc(C(=O)N[C@@H](C)C4CC4)n(CCCO)n3)c2)o1)C1CC1 [Example 16.2, N-((S)-1-Cyclopropylethyl)-2-(3-(5-(((S)-1-Cyclopropylethyl)Carbamoyl)-1-(3-Hydroxypropyl)-1H-1,2,4-Triazol-3-Yl)Phenyl)Oxazole-5-Carboxamide] | 0.29 | 140 | –
C[C@H](NC(=O)c1nnc(-c2cccc(-c3ncc(C(=O)NC45CC6CC(CC(C6)C4)C5)o3)c2)[nH]1)C1CC1 [Example 12.16, (S)-N-(Adamantan-1-Yl)-2-(3-(5-((1-Cyclopropylethyl)Carbamoyl)-4H-1,2,4-Triazol-3-Yl)Phenyl)Oxazole-5-Carboxamide] | 0.42 | 85 | –
CCC(CC)NC(=O)c1cnc(-c2cccc(-c3nc(C(=O)NC(CC)CC)n(CCN(C)C)n3)c2)o1 [Example 15.4, 2-(3-(1-(2-(Dimethylamino)Ethyl)-5-(Pentan-3-Ylcarbamoyl)-1H-1,2,4-Triazol-3-Yl)Phenyl)-N-(Pentan-3-Yl)Oxazole-5-Carboxamide] | 1 | 61 | –
C[C@H](NC(=O)c1nnc(-c2cccc(-c3ncc(C(=O)NC4(C5CC5)CC4)o3)c2)[nH]1)C1CC1 [Example 12.15] | 0.39 | 72 | –
CCC(CC)NC(=O)c1cnc(-c2cccc(-c3cc(C(=O)NC4CCCCC4)n[nH]3)c2)o1 [Example 3.40, 2-(3-(3-(Cyclohexylcarbamoyl)-1 H-Pyrazol-5-Yl)Phenyl)-N-(Pentan-3-yl)Oxazole-5-Carboxamide] | 0.07 | 96 | –
C[C@H](NC(=O)c1cnc(-c2cccc(-c3nc(C(=O)N[C@@H](C)C4CC4)n(CCO)n3)c2)o1)C1CC1 [Example 16.1, N-((S)-1-Cyclopropylethyl)-2-(3-(5-(((S)-1-Cyclopropylethyl)Carbamoyl)-1-(2-Hydroxyethyl)-1H-1,2,4-Triazol-3-Yl)Phenyl)Oxazole-5-Carboxamide] | 0.46 | 102 | –
CCC(CC)NC(=O)c1cnc(-c2cccc(-c3cc(C(=O)N[C@H](CC)[C@H]4CC[C@@H](C)O4)n[nH]3)c2)o1 [Example 3.53, 2-(3-(3-(((R)-1-((2R,5R)-5-Methyltetrahydrofuran-2-Yl)Propyl)Carbamoyl)-1 H-Pyrazol-5-Yl)Phenyl)-N-(Pentan-3-Yl)Oxazole-5-Carboxamide] | 0.72 | 109 | –
COC(=O)[C@@H](NC(=O)c1cnc(-c2cccc(-c3cc(C(=O)N[C@H](C)C4CC4)n[nH]3)c2)o1)C(C)C [Example 1.5, (S)-Methyl 2-(2-(3-(3-(((R)-1-Cyclopropylethyl)Carbamoyl)-1H-Pyrazol-5-Yl)Phenyl)Oxazole-5-Carboxamido)-3-Methylbutanoate] | 0.06 | 98 | –
CCC(CC)NC(=O)c1cnc(-c2cccc(-c3cc(C(=O)NC(C4CC4)C4CCCO4)n[nH]3)c2)o1 (single isomer, unassigned) [Example 3.4 (i), 2-(3-(3-((Cyclopropyl(Tetrahydrofuran-2-Yl)Methyl)Carbamoyl)-1H-Pyrazol-5-Yl)Phenyl)-N-(Pentan-3-Yl)Oxazole-5-Carboxamide] | 0.71 | – | 90
CCOC(=O)[C@@H](NC(=O)c1cnc(-c2cccc(-c3cc(C(=O)NC(C4CC4)C4CC4)[nH]n3)c2)o1)C(C)C [Example 1.12, (S)-Ethyl 2-(2-(3-(5-((Dicyclopropylmethyl)Carbamoyl)-1H-Pyrazol-3-yl)Phenyl)Oxazole-5-Carboxamido)-3-Methylbutanoate] | 0.02 | 87 | –
CCOC(=O)[C@@H](NC(=O)c1cnc(-c2cccc(-c3cc(C(=O)NC(CC)C(F)(F)F)[nH]n3)c2)o1)C(C)C (stereo partly drawn) [Example 1.22, (2S)-Ethyl 3-Methyl-2-(2-(3-(5-((1,1,1-Trifluorobutan-2-Yl)Carbamoyl)-1H-Pyrazol-3-Yl)Phenyl)Oxazole-5-Carboxamido)Butanoate] | 0.03 | 119 | –
C[C@H](NC(=O)c1cc(-c2cccc(-c3ncc(C(=O)N[C@H](C)C4CC4)o3)c2)nn1CC(O)C(F)(F)F)C1CC1 (stereo partly drawn) [Example 8.2, N-((R)-1-Cyclopropylethyl)-2-(3-(5-(((S)-1-Cyclopropylethyl)Carbamoyl)-1-(3,3,3-Trifluoro-2-Hydroxypropyl)-1H-Pyrazol-3-Yl)Phenyl)Oxazole-5-Carboxamide] | 0.45 | 119 | –
CCC(CC)NC(=O)c1cnc(-c2cccc(-c3cc(C(=O)N[C@@H](C)C4CC4)n(CCOC(C)C)n3)c2)o1 [Example 9.0, (S)-2-(3-(5-((1-Cyclopropylethyl)Carbamoyl)-1-(2-Isopropoxyethyl)-1 H-Pyrazol-3-Yl)Phenyl)-N-(Pentan-3-Yl)Oxazole-5-Carboxamide] | 0.15 | 137 | –
C[C@@H](NC(=O)c1n[nH]c(-c2cccc(-c3ncc(C(=O)N[C@H](C)C4CC4)o3)c2)n1)C1CC1 [Example 13.2, N-((R)-1-Cyclopropylethyl)-2-(3-(3-(((R)-1-Cyclopropylethyl)Carbamoyl)-1H-1,2,4-Triazol-5-Yl)Phenyl)Oxazole-5-Carboxamide] | 0.65 | 77 | –
CCOC(=O)[C@H](Cc1ccccc1)NC(=O)c1cnc(-c2cccc(-c3cc(C(=O)NC(CC)CC)n[nH]3)c2)o1 [Example 1.38, (S)-Ethyl 2-(2-(3-(3-(Pentan-3-Ylcarbamoyl)-1 H-Pyrazol-5-yl)Phenyl)Oxazole-5-Carboxamido)-3-Phenylpropanoate] | 0.9 | 61 | –
